Results from patent US11013694B2, “Formulation of a micro drop pill and the preparation method thereof” (TASLY PHARMACEUTICAL GROUP CO., LTD., priority 2013, dated 2021).
Where a name gives a salt, the structure may show the parent alone.

What was measured:
[1] = tested on: acute myocardial infarction in rats; assay: Acute myocardial infarction in rats by coronary artery (LAD) ligature: myocardial infarction rate (MIR); format: in vivo, SD male rats; settings: intragastric pre-administration 7 d (Y 4.5, G 115, F 84 mg/kg)
Text: (§1) SD male rats, weighing 340˜360 g, were purchased from Beijing Weitonglihua Experimental Animal Co., Ltd, and certification No.: SCXK (Jing) 2007-0001.
(§2) Grouping: the rats were randomly divided into groups according to their body weight: S group (Sham operation group), M group (Model group), Y group (Positive control group, metoprolol tartrate, Lot No. 1201039), F group (CSMDP of the present invention) and G group (CSDP available in China, Lot No. 2011L16); 10 rats in each group.
On the 8th day, the rats were anesthetized intraperitoneally with 10% chloral hydrate (3 ml/kg) and fixed on a small wood plate in a supine position. Pins were inserted under the skin of the right forelimb and both hind limbs, and then the rats were connected with the MedLab-U/8c bio-signals collecting-processing system to record ECG of the rats. Hair on the front wall of the left chest was clipped. Oral tracheal cannula was performed and the animal respirator was connected at a respiratory frequency of 80 breaths/min, tidal volume 3 ml/100 g and I:E=1:1. Chest on the left front chest lateral side was incised to cut the 3′ rib and the pericardium was carefully lifted with forceps to tear apart. […] ECG was recorded continuously for 4 hours. […]

[2] = tested on: heart rate in rats with myocardial infarction; assay: Heart rate (ECG) in rats with myocardial infarction after ligation; format: in vivo, SD male rats; settings: 7 d pre-administration
Text: as §1, §2
On the 8th day, the rats were anesthetized intraperitoneally with 10% chloral hydrate (3 ml/kg) and fixed on a small wood plate in a supine position. Pins were inserted under the skin of the right forelimb and both hind limbs, and then the rats were connected with the MedLab-U/8c bio-signals collecting-processing system to record ECG of the rats. Hair on the front wall of the left chest was clipped. Oral tracheal cannula was performed and the animal respirator was connected at a respiratory frequency of 80 breaths/min, tidal volume 3 ml/100 g and I:E=1:1. Chest on the left front chest lateral side was incised to cut the 3′ rib and the pericardium was carefully lifted with forceps to tear apart. […] Medical suture (4-0) was used to transfix LAD and a small amount of myocardial tissue at a distance of about 1˜2 mm from the lower edge of the left atrial appendage and inside interventricular sulcus in the vicinity of the left main trunk of coronary vein. The rats with an elevated J point by 0.1 mV in ECG and pale LVAW (left ventricular anterior wall) indicated a successful modeling. Chest was closed layer by layer. The tracheal tube was removed until the voluntary respiration was recovered in the rats. ECG was recorded continuously for 4 hours.

In the case of COCCc1ccc(OCC(O)CNC(C)C)cc1 (stereo not drawn) [Y group, metoprolol tartrate], the “Average wet weight of the infarction region” value ([1]; LAD ligation on 8th day, heart taken after 4 h ECG) is reported as 0.0233 ± 0.0038 g, the “MIR (myocardial infarction rate = wet weight of the infarction region/wet weight of the whole heart x 100%)” value ([1]; LAD ligation, model group 5.07 ± 0.75) is reported as 2.65 ± 0.33 % and the heart rate ([2]; 0 s after ligation) is reported as 377 ± 48 beat/min. It also gave a heart rate ([2]; 5 s after ligation) of 423 ± 39 beat/min, a heart rate ([2]; 10 s after ligation) of 419 ± 41 beat/min and a heart rate ([2]; 5 min after ligation) of 424 ± 29 beat/min. It also gave a heart rate ([2]; 10 min after ligation) of 431 ± 17 beat/min, a heart rate ([2]; 30 min after ligation) of 413 ± 34 beat/min and a heart rate ([2]; 1 h after ligation) of 421 ± 47 beat/min. For the same molecule, the heart rate ([2]; 2 h after ligation) was 416 ± 33 beat/min, the heart rate ([2]; 3 h after ligation) was 380 ± 66 beat/min and the heart rate ([2]; 4 h after ligation) was 395 ± 52 beat/min.
